Assay [1] addresses T1, COX-2 (Homo sapiens, UniProt P35354).
T1 sequence (P35354 18-604): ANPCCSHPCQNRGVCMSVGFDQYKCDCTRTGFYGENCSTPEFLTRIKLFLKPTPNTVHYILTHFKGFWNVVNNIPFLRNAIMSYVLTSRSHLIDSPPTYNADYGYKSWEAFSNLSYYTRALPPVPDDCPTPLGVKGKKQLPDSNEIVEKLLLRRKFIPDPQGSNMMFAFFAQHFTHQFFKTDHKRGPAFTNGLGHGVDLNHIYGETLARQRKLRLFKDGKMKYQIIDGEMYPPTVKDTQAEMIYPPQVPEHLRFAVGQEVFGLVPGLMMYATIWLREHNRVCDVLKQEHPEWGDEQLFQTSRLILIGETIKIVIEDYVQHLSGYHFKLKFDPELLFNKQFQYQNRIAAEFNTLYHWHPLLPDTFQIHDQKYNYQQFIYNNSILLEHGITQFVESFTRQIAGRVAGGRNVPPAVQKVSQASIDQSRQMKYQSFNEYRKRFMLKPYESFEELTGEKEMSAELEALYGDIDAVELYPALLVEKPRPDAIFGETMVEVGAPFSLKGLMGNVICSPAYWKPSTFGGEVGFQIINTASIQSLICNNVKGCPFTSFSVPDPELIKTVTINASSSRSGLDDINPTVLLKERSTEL
Put plainly: Human whole blood assay, COX-2 (LPS-induced PGE2 production). Format: cell-based. Also noted: endogenous in cells; host or cells: fresh heparinized human whole blood from volunteers, incubated with LPS. As to conditions: LPS-induced PGE2, 24 hours at 37° C., read-out: COX-2 (IC50 μM) HWB. The method, then: Human whole blood provides a protein and cell-rich milieu appropriate for the study of biochemical efficacy of anti-inflammatory compounds such as selective COX-2 inhibitors. […] This is consistent with the observation that COX-2 inhibitors have no effect on PGE2 production in normal blood. These inhibitors are active only after incubation of human whole blood with LPS, which induces COX-2. This assay can be used to evaluate the inhibitory effect of selective COX-2 inhibitors on PGE2 production. As well, platelets in whole blood contain a large amount of the COX-1 enzyme. Immediately following blood clotting, platelets are activated through a thrombin-mediated mechanism. This reaction results in the production of thromboxane B2 (TxB2) via activation of COX-1. Thus, the effect of test compounds on TxB2 levels following blood clotting can be examined and used as an index for COX-1 activity. Therefore, the degree of selectivity by the test compound can be determined by measuring the levels of PGE2 after LPS induction (COX-2) and TxB2 following blood clotting (COX-1) in the same assay.
A. COX-2 (LPS-induced PGE2 production)
Fresh blood is collected in heparinized tubes by venipuncture from both male and female volunteers. The subjects have no apparent inflammatory conditions and have not taken any NSAIDs for at least 7 days prior to blood collection. Plasma is immediately obtained from a 2 mL blood aliquot to use as blank (basal levels of PGE2). The remaining blood is incubated with LPS (100 μg/ml final concentration, Sigma Chem, #L-2630 from E. coli; diluted in 0.1% BSA (Phosphate buffered saline) for 5 minutes at room temperature. Five hundred μL aliquots of blood are incubated with either 2 μL of vehicle (DMSO) or 2 μL of a test compound at final concentrations varying from 10 nM to 30 μM for 24 hours at 37° C. At the end of the incubation, the blood is centrifuged at 12,000×g for 5 minutes to obtain plasma. A 100 μL aliquot of plasma is mixed with 400 μL of methanol for protein precipitation. The supernatant is obtained and is assayed for PGE2 using a radioimmunoassay kit (Amersham, RPA#530) after conversion of PGE2 to its methyl oximate derivative according to the manufacturer's procedure.

Assay [2] deals with COX-1 (Homo sapiens, UniProt P23219). Put plainly: Assay of COX-1 activity from U937 cell microsomes. It is filed as biochemical. Set-up: endogenous in cells; host or cells: U937 cells, 100,000 x g microsomal pellet. The following applies: PGE2, read-out: COX-1 (IC50 μM) U-937. The method, then: Assay of COX-1 Activity from U937 cell microsomes
U937 cells are pelleted by centrifugation at 500×g for 5 min and washed once with phosphate-buffered saline and repelleted. Cells are resuspended in homogenization buffer consisting of 0.1M Tris-HCl, pH 7.4, 10 mM EDTA, 2 μg/ml leupeptin, 2 μg/ml soybean trypsin inhibitor, 2 μg/ml aprotinin and 1 mM phenyl methyl sulfonyl fluoride. The cell suspension is sonicated 4 times for 10 sec and is centrifuged at 10,000×g for 10 min at 4° C. The supernatant is centrifuged at 100,000×g for 1 hr at 4° C. The 100,000×g microsomal pellet is resuspended in 0.1M Tris-HCl, pH 7.4, 10 mM EDTA to approximately 7 mg protein/ml and stored at −80° C.
Microsomal preparations are thawed immediately prior to use, subjected to a brief sonication, and then diluted to a protein concentration of 125 μg/ml in 0.1 M Tris-HCl buffer, pH 7.4 containing 10 mM EDTA, 0.5 mM phenol, 1 mM reduced glutathione and 1 μM hematin. Assays are performed in duplicate in a final volume of 250 μl. Initially, 5 μl of DMSO vehicle or drug in DMSO are added to 20 μl of 0.1M Tris-HCl buffer, pH 7.4 containing 10 mM EDTA in wells of a 96-deepwell polypropylene titre plate. 200 μl of the microsomal preparation are then added and pre-incubated for 15 min at room temperature before addition of 25 μl of […] arachidonic acid in 0.1M Tris-HCl and 10 mM EDTA, pH 7.4. Samples are incubated for 40 min at room temperature and the reaction is stopped by the addition of 25 μl of 1N HCl. Samples are neutralized with 25 μl of 1N NaOH prior to quantitation of PGE2 content by radioimmunoassay (Dupont-NEN or Amersham assay kits). Cyclooxygenase activity is defined as the difference between PGE2 levels in samples incubated in the presence of arachidonic acid and ethanol vehicle.
Compounds of the present invention are inhibitors of cyclooxygenase-2 and are thereby useful in the treatment of cyclooxygenase-2 mediated diseases as enumerated above. The activities of the compounds against cyclooxygenase may be seen in the representative results shown below. In the assay, inhibition is determined by measuring the amount of prostaglandin E2 (PGE2) synthesized in the presence of arachidonic acid, cyclooxygenase-1 or cyclooxygenase-2 and a putative inhibitor. The IC50 values represent the concentration of putative inhibitor required to return PGE2 synthesis to 50% of that obtained as compared to the uninhibited control.

Data on 13 compounds can be found in US6465509B2, “Pyrones as inhibitors of cyclooxygenase-2” (Merck Frosst Canada & Co., priority 2000, dated 2002).

Structures are written as SMILES.

Chain of COX-1 (P23219 24-599): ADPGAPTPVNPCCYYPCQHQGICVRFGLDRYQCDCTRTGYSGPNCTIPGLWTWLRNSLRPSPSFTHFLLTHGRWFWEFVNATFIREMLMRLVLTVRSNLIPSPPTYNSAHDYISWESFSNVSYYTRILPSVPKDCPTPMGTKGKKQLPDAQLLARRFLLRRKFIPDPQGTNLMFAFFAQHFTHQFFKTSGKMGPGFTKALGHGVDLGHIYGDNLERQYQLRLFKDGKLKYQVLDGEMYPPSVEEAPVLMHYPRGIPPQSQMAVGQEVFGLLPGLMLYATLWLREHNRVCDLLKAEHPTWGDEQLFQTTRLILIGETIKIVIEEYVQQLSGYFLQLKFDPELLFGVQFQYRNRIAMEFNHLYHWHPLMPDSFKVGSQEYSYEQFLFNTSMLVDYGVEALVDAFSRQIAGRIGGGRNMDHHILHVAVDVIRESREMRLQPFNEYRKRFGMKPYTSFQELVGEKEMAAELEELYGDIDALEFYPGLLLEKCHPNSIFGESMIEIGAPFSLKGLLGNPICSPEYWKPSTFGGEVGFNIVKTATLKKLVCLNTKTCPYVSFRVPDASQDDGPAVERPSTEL

`CS(=O)(=O)c1ccc(-c2ccoc(=O)c2-c2ccccc2)cc1` [Example 1, 4-(4-Methylsulfonyl)phenyl-3-phenyl-pyran-2-one]: the values for the IC50 in assay [1] and in assay [2] were 2.6 µM and more than 10 µM, respectively.
With `Cc1cc(-c2ccc(S(C)(=O)=O)cc2)c(-c2ccc(F)cc2)c(=O)o1` [Example 2, 3-(4-Fluorophenyl)-6-methyl-4-(4-methylsulfonyl)phenyl-pyran-2-one], the IC50 in assay [1] was less than 0.4 µM; in assay [2], 0.3 to 1 µM.
The matching figures for `Cc1cc(-c2ccc(S(C)(=O)=O)cc2)c(-c2cccc(F)c2)c(=O)o1` [Example 3, 3-(3-Fluorophenyl)-6-methyl-4-(4-methylsulfonyl)phenyl-pyran-2-one]: less than 0.4 µM and 3 to 10 µM.
The matching figures for `Cc1cc(-c2ccc(S(C)(=O)=O)cc2)c(-c2ccccc2)c(=O)o1` [Example 4, 6-Methyl-4-(4-methylsulfonyl)phenyl-3-phenyl-pyran-2-one]: less than 0.4 µM and 1 µM.
With `CS(=O)(=O)c1ccc(-c2cc(C(F)F)oc(=O)c2-c2ccccc2)cc1` [Example 5, 6-Difluoromethyl-4-(4-methylsulfonyl)phenyl-3-phenyl-pyran-2-one], the results for the IC50 in assay [1] and in assay [2] were 1.8 µM and 0.3 to 1 µM, respectively.
With `CS(=O)(=O)c1ccc(-c2cc(CF)oc(=O)c2-c2ccccc2)cc1` [Example 6, 6-Fluoromethyl-4-(4-methylsulfonyl)phenyl-3-phenyl-pyran-2-one], the IC50 in assay [1] was 3.1 µM; in assay [2] it was approximately 1 µM.
As for `Cc1cc(-c2ccc(S(C)(=O)=O)cc2)c(Sc2ccccc2)c(=O)o1` [Example 7, 6-Methyl-4-(4-(methylsulfonyl)phenyl)-3-phenylthio-pyran-2-one], the IC50 in assay [1] was 0.5 µM; in assay [2], 1 to 3 µM.
Regarding `Cc1cc(-c2ccc(S(C)(=O)=O)cc2)c(Oc2ccccc2)c(=O)o1` [Example 8, 6-Methyl-4-(4-(methylsulfonyl)phenyl)-3-phenoxy-pyran-2-one], the figures for the IC50 in assay [1] and in assay [2] were less than 0.4 µM and 1 to 3 µM, respectively.
As to `Cc1cc(-c2ccc(S(C)(=O)=O)cc2)c(-c2cccnc2)c(=O)o1` [Example 9], the IC50 in assay [1] was 0.6 µM; in assay [2], 0.3 to 1 µM.
With `Cc1cc(-c2ccc(S(C)(=O)=O)cc2)c(SC(C)C)c(=O)o1` [Example 10, 3-Isopropylthio-6-methyl-4-(4-(methylsulfonyl)phenyl)-pyran-2-one], the values for the IC50 in assay [1] and in assay [2] were 1.3 µM and more than 10 µM, respectively.
On to `CS(=O)(=O)c1ccc(-c2cc(C(F)(F)F)oc(=O)c2Sc2ccccc2)cc1` [Example 11, 4-(4-(Methylsulfonyl)phenyl)-3-phenylthio-6-trifluoromethyl-pyran-2-one], for which the IC50 in assay [1] is 0.3 to 1 µM; in assay [2], 14 µM.
In the same order, the values of `CC(C)Sc1c(-c2ccc(S(C)(=O)=O)cc2)cc(C(F)(F)F)oc1=O` [Example 12, 3-Isopropylthio-4-(4-(methylsulfonyl)phenyl)-6-trifluoromethyl-pyran-2-one] are 1 to 3 µM and more than 33 µM.
Turning to `Cc1cc(-c2ccc(S(C)(=O)=O)cc2)c(CCC(C)(C)O)c(=O)o1` [Example 14, 3-(3-Hydroxy-3-methylbutyl)-6-methyl-4-(4-methylsulfonyl)phenyl-pyran-2-one], the figures for the IC50 in assay [1] and in assay [2] were 1.2 µM and more than 10 µM, respectively.
